Laboratory results reported in PubChem BioAssay AID1259407 (Chemical Carcinogenesis Research Information System (CCRIS), 2018).
Entries after “also recorded” stand apart in the source; their conditions may differ. Activity calls are given as the source filed them. How the calls were made is not given here.

System: CCRIS mutagenicity, Ames/micronucleus/aberration tests
Test: CCRIS mutagenicity studies
[1] = Test System: Mouse lymphoma, Strain/Indicator: L5178Y (tk+/tk-), Metabolic Activation: None, Method: Suspension/plate
[2] = Test System: Mouse lymphoma, Strain/Indicator: L5178Y (tk+/tk-), Metabolic Activation: Rat, Liver, S-9, Aroclor 1254, Method: Suspension/plate
[3] = Test System: AMES SALMONELLA TYPHIMURIUM, Strain/Indicator: TA98, Metabolic Activation: NONE, Method: STANDARD PLATE
[4] = Test System: AMES SALMONELLA TYPHIMURIUM, Strain/Indicator: TA100, Metabolic Activation: NONE, Method: STANDARD PLATE
[5] = Test System: AMES SALMONELLA TYPHIMURIUM, Strain/Indicator: TA1535, Metabolic Activation: NONE, Method: STANDARD PLATE
[6] = Test System: AMES SALMONELLA TYPHIMURIUM, Strain/Indicator: TA1537, Metabolic Activation: NONE, Method: STANDARD PLATE

With COc1ccc2nc(S(=O)Cc3ncc(C)c(OC)c3C)[nH]c2c1 (centres undefined) the mutagenic call (End Point: IN VITRO MICRONUCLEUS, Test System: AHH-1 CELLS, Metabolic Activation: NONE) was “active; positive”, the mutagenic call (End Point: IN VITRO MICRONUCLEUS, Test System: HEPATOCYTES, Species: RAT, Strain/Sex: SPRAGUE-DAWLEY/FEMALE, Metabolic Activation: NONE) was “active; positive; at 33 mg dose in 50% of rats” and the mutagenic call (End Point: IN VITRO MICRONUCLEUS, Test System: HUMAN LYMPHOCYTES, Metabolic Activation: NONE) was “active; positive (in 4/5 donors); also recorded: active; positive; only at 18 ug/ml and 1 of 2 donors”. The mutagenic call (End Point: IN VITRO MICRONUCLEUS, Test System: MCL-5 CELLS, Metabolic Activation: NONE) was “active; positive”, the mutagenic call (End Point: IN VIVO MICRONUCLEUS, Test System: BONE MARROW POLYCHROMATIC ERYTHROCYTES, Species: RAT, Strain/Sex: SPRAGUE-DAWLEY/FEMALE, Route: ORAL) was “inactive; negative; some increase but not statistically significant” and the mutagenic call (End Point: IN VIVO MICRONUCLEUS, Test System: HEPATOCYTES, Species: RAT, Strain/Sex: SPRAGUE-DAWLEY/FEMALE, Route: ORAL) was “active; positive”.
In the case of C[N+](C)(CF)CCO, the mutagenic call [1] was “inactive; negative” and the mutagenic call [2] was “inactive; negative”.
For CCCS(=O)(=O)n1ncc(Cl)c(Cl)c1=O, the mutagenic call [3] was “inactive; negative”, the mutagenic call (Test System: AMES SALMONELLA TYPHIMURIUM, Strain/Indicator: TA98, Metabolic Activation: RAT, LIVER, S-9, AROCLOR 1254, Method: STANDARD PLATE) was “inactive; negative” and the mutagenic call [4] was “active; positive”. For the same compound, the mutagenic call (Test System: AMES SALMONELLA TYPHIMURIUM, Strain/Indicator: TA100, Metabolic Activation: RAT, LIVER, S-9, AROCLOR 1254, Method: STANDARD PLATE) was “active; positive”, the mutagenic call [5] was “inactive; negative” and the mutagenic call (Test System: AMES SALMONELLA TYPHIMURIUM, Strain/Indicator: TA1535, Metabolic Activation: RAT, LIVER, S-9, AROCLOR 1254, Method: STANDARD PLATE) was “active; positive”. The mutagenic call [6] was “inactive; negative” and the mutagenic call (Test System: AMES SALMONELLA TYPHIMURIUM, Strain/Indicator: TA1537, Metabolic Activation: RAT, LIVER, S-9, AROCLOR 1254, Method: STANDARD PLATE) was “inactive; negative”.
C[Si]1(C)O[Si](C)(C)O[Si](C)(C)O[Si](C)(C)O1 was tested, and the mutagenic call (Test System: AMES SALMONELLA TYPHIMURIUM, Strain/Indicator: TA98, Metabolic Activation: NONE, Method: PREINCUBATION) was “inactive; negative”, the mutagenic call [3] was “inactive; negative” and the mutagenic call (Test System: AMES SALMONELLA TYPHIMURIUM, Strain/Indicator: TA98, Metabolic Activation: RAT LIVER S-9, AROCLOR 1254, Method: PREINCUBATION) was “inactive; negative”. The mutagenic call (Test System: AMES SALMONELLA TYPHIMURIUM, Strain/Indicator: TA98, Metabolic Activation: RAT LIVER S-9, AROCLOR 1254, Method: STANDARD PLATE) was “inactive; negative”, the mutagenic call (Test System: AMES SALMONELLA TYPHIMURIUM, Strain/Indicator: TA100, Metabolic Activation: NONE, Method: PREINCUBATION) was “inactive; negative” and the mutagenic call [4] was “inactive; negative”. For the same compound, the mutagenic call (Test System: AMES SALMONELLA TYPHIMURIUM, Strain/Indicator: TA100, Metabolic Activation: RAT LIVER S-9, AROCLOR 1254, Method: PREINCUBATION) was “inactive; negative”, the mutagenic call (Test System: AMES SALMONELLA TYPHIMURIUM, Strain/Indicator: TA100, Metabolic Activation: RAT LIVER S-9, AROCLOR 1254, Method: STANDARD PLATE) was “inactive; negative” and the mutagenic call (Test System: AMES SALMONELLA TYPHIMURIUM, Strain/Indicator: TA1535, Metabolic Activation: NONE, Method: PREINCUBATION) was “inactive; negative”. For the same compound, the mutagenic call [5] was “inactive; negative”, the mutagenic call (Test System: AMES SALMONELLA TYPHIMURIUM, Strain/Indicator: TA1535, Metabolic Activation: RAT LIVER S-9, AROCLOR 1254, Method: PREINCUBATION) was “inactive; negative” and the mutagenic call (Test System: AMES SALMONELLA TYPHIMURIUM, Strain/Indicator: TA1535, Metabolic Activation: RAT LIVER S-9, AROCLOR 1254, Method: STANDARD PLATE) was “inactive; negative”. For the same compound, the mutagenic call (Test System: AMES SALMONELLA TYPHIMURIUM, Strain/Indicator: TA1537, Metabolic Activation: NONE, Method: PREINCUBATION) was “inactive; negative”, the mutagenic call [6] was “inactive; negative” and the mutagenic call (Test System: AMES SALMONELLA TYPHIMURIUM, Strain/Indicator: TA1537, Metabolic Activation: RAT LIVER S-9, AROCLOR 1254, Method: PREINCUBATION) was “inactive; negative”. The mutagenic call (Test System: AMES SALMONELLA TYPHIMURIUM, Strain/Indicator: TA1537, Metabolic Activation: RAT LIVER S-9, AROCLOR 1254, Method: STANDARD PLATE) was “inactive; negative”, the mutagenic call (Test System: AMES SALMONELLA TYPHIMURIUM, Strain/Indicator: TA1538, Metabolic Activation: NONE, Method: PREINCUBATION) was “inactive; negative” and the mutagenic call (Test System: AMES SALMONELLA TYPHIMURIUM, Strain/Indicator: TA1538, Metabolic Activation: NONE, Method: STANDARD PLATE) was “inactive; negative”. The mutagenic call (Test System: AMES SALMONELLA TYPHIMURIUM, Strain/Indicator: TA1538, Metabolic Activation: RAT LIVER S-9, AROCLOR 1254, Method: PREINCUBATION) was “inactive; negative”, the mutagenic call (Test System: AMES SALMONELLA TYPHIMURIUM, Strain/Indicator: TA1538, Metabolic Activation: RAT LIVER S-9, AROCLOR 1254, Method: STANDARD PLATE) was “inactive; negative” and the mutagenic call (Test System: E. COLI, Strain/Indicator: P3078 POLA, Metabolic Activation: NONE, Method: SPOT TEST) was “inactive; negative”. For the same compound, the mutagenic call (Test System: E. COLI, Strain/Indicator: P3078 POLA, Metabolic Activation: RAT LIVER S-9, AROCLOR 1254, Method: SPOT TEST) was “inactive; negative”, the mutagenic call (Test System: E. COLI, Strain/Indicator: W3110, Metabolic Activation: NONE, Method: SPOT TEST) was “inactive; negative” and the mutagenic call (Test System: E. COLI, Strain/Indicator: W3110, Metabolic Activation: RAT LIVER S-9, AROCLOR 1254, Method: SPOT TEST) was “inactive; negative”. For the same compound, the mutagenic call (Test System: MOUSE LYMPHOMA, Strain/Indicator: L5178Y (TK+/TK-), Metabolic Activation: NONE, Method: SUSPENSION/PLATE) was “inactive; negative”, the mutagenic call (Test System: MOUSE LYMPHOMA, Strain/Indicator: L5178Y (TK+/TK-), Metabolic Activation: RAT, LIVER, S-9, Method: SUSPENSION/PLATE) was “inactive; negative” and the mutagenic call [1] was “inactive; inconclusive (previous evaluation negative)”. The mutagenic call [2] was “inactive; negative”.
